Converted amounts (≈) assume the structure as drawn.
Tests used:
Type in all cases: functional
Escherichia coli [1] = assay: Tested for the minimum inhibitory concentration against Escherichia coli 1852E + 3 ug/mL PMBN
Escherichia coli [2] = assay: Tested for the minimum inhibitory concentration against Escherichia coli 1852E PM
Staphylococcus aureus [3] = assay: Tested for the minimum inhibitory concentration against Staphylococcus aureus 853E
Saccharomyces cerevisiae = assay: Tested for the minimum inhibitory concentration against Saccharomyces cerevisiae NCYC 81
Staphylococcus aureus [4] = assay: Tested for the minimum inhibitory concentration against Staphylococcus aureus col
Bacillus subtilis = assay: Tested for the minimum inhibitory concentration against Bacillus subtilis 6633
Enterococcus faecalis = assay: Tested for the minimum inhibitory concentration against […] faecalis 850E
Streptococcus pneumoniae = assay: Tested for the minimum inhibitory concentration against Streptococcus pneumoniae 3512

Compound | MIC (Escherichia coli [1]) [µg/mL] | MIC (Escherichia coli [2]) [µg/mL] | MIC (Staphylococcus aureus [3]) [µg/mL] | MIC (Saccharomyces cerevisiae) [µg/mL] | MIC (Staphylococcus aureus [4]) [µg/mL] | MIC (Bacillus subtilis) [µg/mL] | MIC (Enterococcus faecalis) [µg/mL] | MIC (Streptococcus pneumoniae) [µg/mL]
COC1=CC(=O)N(C(=O)[C@H]2CSC(CNC(C)=O)=N2)C1 | 8 | 16 (≈ 53.8 µM) | 32 (≈ 108 µM) | > 32 | 32 (≈ 108 µM) | 16 (≈ 53.8 µM) | 32 (≈ 108 µM) | 16 (≈ 53.8 µM)
CO/N=C(\C(=O)N[C@@H]1C(=O)N2C(C(=O)O)=C(CSc3nc(=O)c(O)nn3C)CS[C@H]12)c1csc(N)n1 [CEFTRIAXONE] | 0.01 | 0.06 (≈ 0.108 µM) | 4 (≈ 7.21 µM) | > 32 | > 32 | 0.25 (≈ 0.451 µM) | 16 (≈ 28.9 µM) | 0.01 (≈ 0.018 µM)
COC1=CC(=O)N(C(=O)[C@H]2CSC(C(CO)NC(=O)c3csc(/C=N/O)n3)=N2)C1 (some centres undefined) | 1 | 1 (≈ 2.28 µM) | 16 (≈ 36.4 µM) | > 32 | 16 (≈ 36.4 µM) | 16 (≈ 36.4 µM) | 16 (≈ 36.4 µM) | 4 (≈ 9.1 µM)

Reference: ChEMBL document CHEMBL1135062, “Total synthesis and semi-synthetic approaches to analogues of antibacterial natural product althiomycin” (2002)
